According to US6372766B1, “Substituted 2-(2′-pyridyloxy)phenylacetamides, as fungicides and pesticides” (priority 1997, dated 2002):

Experiments:
[1] = tested on: Puccinia recondita; experiment: Action against Puccinia recondita on wheat (wheat leaf rust); format: in vivo; settings: 63 ppm; wheat "Frühgold"; sprayed the day after infection; 7 days; untreated plants 75%
[2] = tested on: Nephotettix cincticeps; experiment: Action against Nephotettix cincticeps (green rice leafhopper), contact action; format: in vivo; settings: treated filter paper dishes, adult leafhoppers, mortality after 24 hours
Description: The active compounds were formulated
a. as a 0.1% solution in acetone or
b. as a 10% emulsion in a mixture of 70% by weight of cyclohexanone, 20% by weight of Nekanil® LN (Lutensol® AP6, wetting agent having emulsifying and dispersing action based on ethoxylated alkylphenols) and 10% by weight of Wettol® EM (nonionic emulsifier based on ethoxylated castor oil)
and diluted in the case of a. with acetone and in the case of b. with water to give the desired concentration.
After the experiments had ended, in each case the lowest concentration was determined at which the compounds still caused an 80 to 100% inhibition or mortality in comparison with untreated control experiments (critical or minimal concentration).
Filter paper dishes (Ø 9 cm) were treated with 1 ml of aqueous preparations of active compounds and subsequently populated with five adult leafhoppers. After 24 hours, the mortality was determined.

Row | Compound | infection (extent of rust fungus development on leaves) [1] | critical concentration (lowest concentration still causing 80 to 100% inhibition or mortality) [2] [mg]
1 | CNC(=O)/C(=N/OC)c1ccccc1COc1ncc(C(F)(F)F)cc1F [I-1, α-anti-methoxyimino-N-methyl-2-(3-fluoro-5-trifluoromethyl-2-pyridyloxy)methylphenyl-acetamide] | no infection | –
2 | CNC(=O)/C(=N/OC)c1ccccc1COc1ncc(C(F)(F)F)cc1C [I-2, α-anti-methoxyimino-N-methyl-2-(3-methyl-5-trifluoromethyl-2-pyridyloxy)methyl-phenylacetamide] | no infection | 0.2
3 | CNC(=O)/C(=N/OC)c1ccccc1COc1nc(Cl)ccc1C(F)(F)F [I-3] | no infection | –
4 | CNC(=O)/C(=N/OC)c1ccccc1COc1nc(Cl)c(C(F)(F)F)cc1Cl [I-6] | no infection | –
5 | CNC(=O)/C(=N/OC)c1ccccc1COc1ncc(C(F)F)cc1Cl [I-8] | no infection | –
